Drawing on ChEMBL document CHEMBL1135451, “Electrochemical and peroxidase oxidation study of N'-hydroxyguanidine derivatives as NO donors” (Bioorg Med Chem Lett, 2002), this text covers Concentration for twelve compounds.

A short description of the assay: NO-releasing ability under the oxidation by horseradish peroxidase (HRP) in the presence of H2O2 for 20min, expressed as nitrite concentration. In kind it is functional.
With `Cc1ccc(C/N=C(/N)NO)cc1`, the Concentration is 113 µM.

For the compound `Cc1ccc(NC(=N)NO)cc1`, the Concentration was 6 µM.

In the case of `N=C(NO)Nc1ccccc1`, the Concentration is 28 µM.

Turning to `N/C(=N/Cc1ccc(Cl)cc1)NO`, the Concentration worked out at 151 µM.

As for `N=C(NO)Nc1ccc(Cl)cc1`, the Concentration was found to be 63 µM.

On to `N=C(NO)NCc1ccccc1`, for which the Concentration is 33 µM.

For the compound `N/C(=N/Cc1ccc([N+](=O)[O-])cc1)NO`, the Concentration turned out to be 65 µM.

`N/C(=N/CCCC(N)C(=O)O)NO` (configuration not stated): the Concentration stood at 12 µM.

Consider `COc1ccc(C/N=C(/N)NO)cc1`, for which the Concentration was found to be 49 µM.

Consider `COc1ccc(NC(=N)NO)cc1`, for which the Concentration was 24 µM.

Take `N/C(=N/c1ccc(Br)cc1)NO`: the Concentration is 54 µM.

`N=C(N)NCCC[C@H](N)C(=O)O`: the Concentration was found to be 0 µM.
